In patent US8969554B2, “6-acyl-1,2,4-triazine-3,5-dione derivative and herbicides” (Kumiai Chemical Industry Co., Ltd., priority 2010, dated 2015):

Tests used:
Type in all cases: in vivo
Monochoria vaginalis = test: Herbicidal activity by paddy field soil treatment (Test Example 1); set-up: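 index 0 to 10 in 10% steps of herbicidal effect with 10 meaning complete death and 0 below 10%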; settings: 1000 g of effective component per hectare, evaluated on day 21 after the treatment, criteria of Table 72
Method in brief: (§1)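 Herbicidal effect is rated on a graded scale 21 days after treatment. Treatment: wettable powder diluted in water, applied onto the flood water (3 cm deep) of sown paddy-soil pots on the day after sowing, 1000 g active component per hectare, greenhouse cultivation.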

Scirpus juncoides Rocxb. = test: as above; set-up: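 index 0 to 10 in 10% steps of herbicidal effect with 10 meaning complete death and 0 below 10%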; settings: applied on water surface, 1000 g of effective component per hectare, day 21 after the treatment
Method in brief: as §1

Echinochloa oryzicola = test: as above; set-up: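 index 0 to 10 in 10% steps of herbicidal effect with 10 meaning complete death and 0 below 10%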; settings: 1000 g of effective component per hectare, evaluated on day 21 after the treatment, criteria of Table 72
Method in brief: as §1

foxtail = test: Herbicidal activity by field soil treatment (Test example 2); settings: 1000 g effective component per hectare, day 21 after the treatment;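 further: index 0 to 10 in 10% steps of herbicidal effect with 10 meaning complete death and 0 below 10%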
Method in brief: (§2)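 Herbicidal effect is rated by fixed criteria on day 21 post-treatment. Before that, pots of field soil holding freshly sown, soil-covered seeds receive a surface spray of diluted wettable powder (1000 g per hectare effective component, spray volume 1000 liters per hectare) and are kept in a greenhouse.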

Setaria viridis = test: Herbicidal activity by field foliage treatment (Test example 3); settings: 1000 g effective component per hectare, day 14 after the treatment;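 further: index 0 to 10 in 10% steps of herbicidal effect with 10 meaning complete death and 0 below 10%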
Method in brief: (§3)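 Potted field-soil plants grown 2 weeks in a greenhouse were sprayed over the whole foliage with diluted wettable powder at 1000 L/ha, delivering 1000 g active ingredient per hectare. Herbicidal effect scored by visual criteria 14 days after treatment.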

Indian millet [1] = test: as above; set-up: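 index 0 to 10 in 10% steps of herbicidal effect with 10 meaning complete death and 0 below 10%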; settings: 1000 g effective component per hectare, day 14 after the treatment
Method in brief: (§4)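 Herbicidal effect is rated on a scoring scale 14 days after treatment. Seedlings raised 2 weeks in field soil under glass receive an overall foliar spray of wettable powder diluted in water, giving 1000 g active component per hectare.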

A. retroflexus [2] = test: as above; set-up: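 index 0 to 10 in 10% steps of herbicidal effect with 10 meaning complete death and 0 below 10%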; settings: 1000 g effective component per hectare, day 14 after the treatment
Method in brief: as §4

Echinochloa crus-galli [3] = test: Herbicidal activity by field soil treatment (Test example 2); set-up: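 index 0 to 10 in 10% steps of herbicidal effect with 10 meaning complete death and 0 below 10%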; settings: 1000 g effective component per hectare, day 21 after the treatment
Method in brief: as §2

Indian millet [4] = test: as above; set-up: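 index 0 to 10 in 10% steps of herbicidal effect with 10 meaning complete death and 0 below 10%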; settings: 1000 g effective component per hectare, day 21 after the treatment
Method in brief: as §2

A. retroflexus [5] = test: as above; set-up: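 index 0 to 10 in 10% steps of herbicidal effect with 10 meaning complete death and 0 below 10%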; settings: 1000 g effective component per hectare, day 21 after the treatment
Method in brief: as §2

Echinochloa crus-galli [6] = test: Herbicidal activity by field foliage treatment (Test example 3); set-up: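 index 0 to 10 in 10% steps of herbicidal effect with 10 meaning complete death and 0 below 10%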; settings: 1000 g effective component per hectare, day 14 after the treatment
Method in brief: as §3

| SMILES | Herbicidal effects index number, Monochoria vaginalis (Monochoria vaginalis) | herbicidal effect index, S. juncoides Rocxb. (Scirpus juncoides Rocxb.) | Herbicidal effects index number, Echinochloa oryzicola (Echinochloa oryzicola) | herbicidal effect index, Setaria viridis (foxtail) | herbicidal effect index, Setaria viridis (Setaria viridis) | herbicidal effect index, Abutilon theophrasti (Indian millet [1]) | herbicidal effect index, Amaranthus retroflexus (A. retroflexus [2]) | herbicidal effect index, Echinochloa crus-galli (Echinochloa crus-galli [3]) | herbicidal effect index, Abutilon theophrasti (Indian millet [4]) | herbicidal effect index, Amaranthus retroflexus (A. retroflexus [5]) | herbicidal effect index, Echinochloa crus-galli (Echinochloa crus-galli [6]) |
| --- | --- | --- | --- | --- | --- | --- | --- | --- | --- | --- | --- |
| Cc1cccc(-n2c(=O)c(C(=O)C3=C(O)CCCC3=O)nn(C)c2=O)c1 [I-58] | 10 | 10 | 10 | 8 | 10 | 10 | 10 | 10 | 10 | 10 | 10 |
| Cn1nc(C(=O)C2=C(O)CCCC2=O)c(=O)n(-c2ccccc2C(F)(F)F)c1=O [I-63] | 10 | 10 | 10 | 10 | 10 | 10 | 10 | 10 | 10 | 10 | 10 |
| Cn1nc(C(=O)C2=C(O)CCCC2=O)c(=O)n(-c2ccccc2[N+](=O)[O-])c1=O [I-66] | 10 | 10 | 10 | 10 | 10 | 10 | 10 | 10 | 10 | 10 | 10 |
| Cn1nc(C(=O)C2=C(O)CCCC2=O)c(=O)n(-c2cccc([N+](=O)[O-])c2)c1=O [I-67] | 10 | 10 | 10 | 10 | 10 | 10 | 10 | 10 | 10 | 10 | 10 |
| Cn1nc(C(=O)C2=C(O)CCCC2=O)c(=O)n(-c2ccc([N+](=O)[O-])cc2)c1=O [I-68] | 10 | 10 | 10 | 10 | 8 | 10 | 10 | 10 | 10 | 10 | 10 |
| Cn1nc(C(=O)C2=C(O)CCCC2=O)c(=O)n(-c2ccc(OC(F)(F)F)cc2)c1=O [I-71] | 10 | 10 | 10 | 6 | 9 | 9 | 10 | 10 | 10 | 10 | 10 |
| Cn1nc(C(=O)C2=C(O)CCCC2=O)c(=O)n(-c2ccccc2C#N)c1=O [I-72] | 10 | 10 | 10 | 10 | 10 | 10 | 10 | 9 | 10 | 10 | 10 |
| Cn1nc(C(=O)C2=C(O)CCCC2=O)c(=O)n(-c2cccc(C#N)c2)c1=O [I-73] | 10 | 10 | 10 | 8 | 10 | 10 | 10 | 9 | 10 | 10 | 10 |
| Cn1nc(C(=O)C2=C(O)CCCC2=O)c(=O)n(-c2ccc(C#N)cc2)c1=O [I-74] | 10 | 10 | 10 | 7 | 9 | 9 | 10 | 10 | 10 | 10 | 9 |
| Cn1nc(C(=O)C2=C(O)CCCC2=O)c(=O)n(-c2ccc(F)c(F)c2)c1=O [I-75] | 10 | 10 | 10 | 7 | 10 | 10 | 10 | 9 | 10 | 10 | 10 |
| Cn1nc(C(=O)C2=C(O)CCCC2=O)c(=O)n(-c2cc(F)cc(F)c2)c1=O [I-76] | 10 | 10 | 10 | 9 | 9 | 10 | 10 | 10 | 10 | 10 | 10 |
| Cn1nc(C(=O)C2=C(O)CCCC2=O)c(=O)n(-c2cccc(F)c2F)c1=O [I-77] | 10 | 10 | 10 | 9 | 10 | 10 | 10 | 9 | 10 | 10 | 10 |
| Cn1nc(C(=O)C2=C(O)CCCC2=O)c(=O)n(-c2cc(F)ccc2F)c1=O [I-79] | 10 | 10 | 10 | 10 | 10 | 10 | 10 | 9 | 10 | 10 | 10 |
| Cn1nc(C(=O)C2=C(O)CCCC2=O)c(=O)n(-c2c(F)cccc2F)c1=O [I-80] | 10 | 10 | 10 | 9 | 7 | 9 | 10 | 9 | 9 | 10 | 10 |
| Cn1nc(C(=O)C2=C(O)CCCC2=O)c(=O)n(-c2ccc(Cl)c(Cl)c2)c1=O [I-81] | 10 | 10 | 10 | 7 | 10 | 10 | 10 | 9 | 10 | 10 | 10 |
